The values that follow come from paper PMC7687371, “Quantitative in Vitro to in Vivo Extrapolation (QIVIVE) for Predicting Reduced Anogenital Distance Produced by Anti-Androgenic Pesticides in a Rodent Model for Male Reproductive Disorders” (Environmental Health Perspectives, 2020).

Marks after values point to notes of the source that are not given here.

A short description of data set [1]: PBK model first-order kinetic parameters fitted to in vivo ADME data. Set-up: species or system rat. The note with it: for Metabolism rate in liver, Total (L/h) KMetab: metabolic clearance.
Details of data set [2]: method as in U.S. EPA 2012. The settings on record: EPI Suite, experimental preferred over modeled; ref U.S. EPA 2012; cited from earlier work.
Data set [3] concerns the target T1, androgen receptor (AR) (Homo sapiens, UniProt P10275).
T1 construct: host or cells: AR-EcoScreen cells
T1 sequence (P10275 1-920): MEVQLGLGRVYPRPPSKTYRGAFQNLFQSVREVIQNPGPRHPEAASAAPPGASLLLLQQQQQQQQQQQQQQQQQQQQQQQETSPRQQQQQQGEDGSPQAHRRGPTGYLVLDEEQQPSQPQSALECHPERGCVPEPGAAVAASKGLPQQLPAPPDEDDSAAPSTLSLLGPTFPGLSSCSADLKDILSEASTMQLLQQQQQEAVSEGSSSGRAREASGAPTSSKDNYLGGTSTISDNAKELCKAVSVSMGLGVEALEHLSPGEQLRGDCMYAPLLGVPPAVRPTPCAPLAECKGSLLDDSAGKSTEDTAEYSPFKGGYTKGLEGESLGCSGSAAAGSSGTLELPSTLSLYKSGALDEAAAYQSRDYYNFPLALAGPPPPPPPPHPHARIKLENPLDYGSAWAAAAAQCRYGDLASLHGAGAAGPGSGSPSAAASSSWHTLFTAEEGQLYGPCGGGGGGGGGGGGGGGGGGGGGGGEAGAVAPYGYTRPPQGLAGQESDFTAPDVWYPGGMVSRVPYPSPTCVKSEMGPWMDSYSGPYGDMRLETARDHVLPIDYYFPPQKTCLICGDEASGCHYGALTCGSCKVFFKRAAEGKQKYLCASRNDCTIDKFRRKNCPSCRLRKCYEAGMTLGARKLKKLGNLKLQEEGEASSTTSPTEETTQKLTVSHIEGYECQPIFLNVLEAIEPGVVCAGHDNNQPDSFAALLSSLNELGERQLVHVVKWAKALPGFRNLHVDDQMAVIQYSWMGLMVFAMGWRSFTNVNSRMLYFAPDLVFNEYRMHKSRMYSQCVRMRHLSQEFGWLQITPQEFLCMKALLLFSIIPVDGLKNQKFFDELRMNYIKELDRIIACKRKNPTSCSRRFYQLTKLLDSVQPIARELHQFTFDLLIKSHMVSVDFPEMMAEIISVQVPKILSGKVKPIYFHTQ
The experiment in a line: AR-EcoScreen androgen receptor transcriptional activation assay (AR antagonism). The format is cell-based. As to the method: Experiments were run with three technical replicates and repeated three times. The mean value of technical replicates represents one biological replicate. AR-EcoScreen™ cells (JCRB1328; Japanese Collection of Research Bioresources) were grown in CellBIND® surface cell culture flasks (Corning Inc.) in growth medium consisting of Gibco® Dulbecco’s Modified Eagle’s Medium/F-12 (DMEM/F-12) Nutrient Mixture with L-glutamine and 4-(2-hydroxyethyl)-1-piperazineethanesulfonic acid (HEPES) and without phenol red supplemented with 5% fetal bovine serum (FBS), 1% penicillin-streptomycin, 200μg/mL Zeocin™ selection reagent, and 100μg/mL Hygromycin B (all reagents from Invitrogen, Life Technologies). The cells were incubated at 37°C in a humidified atmosphere of 5% carbon dioxide ( CO2 ) and 95% air. On the day before the experiment, cells were plated in white 96-well plates (Corning Inc.) at a density of 9,000 cells/well in assay medium consisting of Gibco® DMEM/F-12 Nutrient Mixture medium, 1% penicillin-streptomycin, with 5% dextran-coated charcoal-treated FBS (all reagents from Invitrogen, Life Technologies). On the following day, the medium was changed to assay medium containing the known AR agonist R1881 (Perkin Elmer) in 2-fold serial dilutions from 0.008 to 1 nM or the known AR antagonist hydroxyflutamide (CASRN 52806-53-8, Toronto Research Chemicals) in 3-fold serial dilutions from […] together with 0.1 nM R1881. […] The DMSO vehicle concentrations were kept constant in all wells (0.1%). Following approximately 20 h of exposure to test compounds firefly luminescence was measured in a luminometer (LUMIstar® Galaxy, BMG LABTECH) using Dual-Glo® Luciferase Reagent from the Dual-Glo® Luciferase Assay System from Promega. Cell viability was measured by Renilla luminescence using Dual-Glo® Stop & Glo® Reagent from the Dual-Glo® Luciferase Assay System.

Data set [4] is described as follows: Fetal chemical exposure analysis (LC-QTOF) at GD21. The format is in vivo, rat. The settings on record: fetal plasma GD21. As to the method: Dams were decapitated under CO2 /oxygen anesthesia at GD21 and fetuses collected by cesarean section. Prior to decapitation of the fetuses, their BWs and AGDs were recorded. Blood from the dams was collected in heparinized vacutainer tubes, centrifuged at 125×g for 10 min at 4°C to prepare plasma, and, together with the amniotic fluid, frozen directly. Pooled trunk blood from all female and male fetuses of the same litter (female and male blood separately) was collected into heparin-treated capillary tubes approximately 90 min after dosing and the plasma was prepared and stored at −80°C until analysis for pesticides and selected metabolites by liquid chromatography quadrupole time-of-flight mass spectroscopy (LC-QTOF). Details about the LC-QTOF analyses are provided in “Method S1” in Supplemental Material. Amniotic fluid was collected from fetuses by pipetting, pooled within each litter, snap frozen in liquid nitrogen, and subsequently stored at −80 °C .
Method S1. Chemical analysis of pesticide levels
Acetonitrile, methanol, formic acid and 25% ammonium hydroxide, all of LC-MS grade and ethyl acetate were obtained from Sigma Aldrich, Schneldorf, Germany. Isolute bulk C-18 sorbent was obtained from Biotage, Sweden and was washed with acetonitrile and ethyl acetate and dried prior to use. Water was purified on a Milli Q system, Millipore Corporation, US.
Pesticide standards were purchased from Dr. Ehrenstorfer (Augsburg, Germany), LGC-standards (Teddington, Middlesex, UK) and Sigma Aldrich (St. Louis, MO, USA). Acetonitrile used as solvents for the LC-QTOF was LiChrosolv Hypergrade. An ESI-L low concentration tuning mix from Agilent (Santa Clara, CA, USA) was used for tuning of the TOF. A reference solution was prepared containing Purine and HP0921 from Agilent (Santa Clara, CA, USA).
Stock solutions of the pesticides were prepared at 1 mg/ml in acetonitrile, methanol or toluene.
Standard mixtures containing the test compounds were prepared at a concentration of 10 µg/ml acetonitrile and used for preparation of calibration solutions. Isomers eluting very close to each other were avoided in these mixtures. […]
added 200 µl of ice-cold acetonitrile in Eppendorf tubes. Internal standard was added in the form of 10 µl TPP (5 µg/ml) and the extraction was performed by whirl mixing. The tube was then stored on ice for 5 min and then centrifuged at 10,000 x g for 10 min at 4 °C (Ole Dich Instrument, Denmark). An aliquot of the supernatant was transferred to filter vials (0.45 µm) and analysed by […]
Quality control samples were included in each analytical run. These were prepared using the same procedure as for the samples, though using amniotic fluid from untreated control Wistar rats extracted with acetonitrile containing three different levels of the relevant pesticide standards. The resulting spike levels were 0.04, 0.013 and 0.13 µg/ml. […]
fluid or plasma from Sprague Dawley rats was transferred to an Eppendorf vial and added 150 µl of acetonitrile. 50 mg of isolute C-18 sorbent was added to the tube, which was shaken for 5 min, […]
cooled to 4 °C and centrifuged at 10,000 x g for 10 min at 4 °C (Ole Dich Instrument makers, Denmark). 20 µl of the supernatant was transferred to an HPLC vial and mixed with 80 µl of 5%- 75% acetonitrile (this percentage was analyte dependent) prior to analysis by LC-MS.LC -QTOF […]
Pesticide screening was carried out using a liquid chromatography-electrospray ionization-quadrupole-time of flight-mass spectrometer.
The LC system was connected to a Bruker Daltonics, maXis qTOF mass spectrometer equipped with an electrospray ion source operated in positive ion mode (Bruker Daltonics, Bremen, Germany). The ion source settings were: nebulizer pressure 2 bars, drying gas flow 8 l/min, dry gas temperature 200 °C, capillary voltage 2500 V. The scan range was from 80 to 700 m/z with an acquisition rate of 2 Hz. Sodium formate dissolved in 50% 2-propanol was introduced in the ion […]

Data set [5] deals with Sprague-Dawley rats. Nature of the data set: In vivo Study 2 (linuron), reproductive/developmental toxicity, AGD. The settings on record: for AGDI mean: Study 2, male pups; for AGDI reduction (%): male offspring, normalized AGDI scale.
For data set [6] the following is noted: ref Wetmore et al. (2012); cited from earlier work.
In data set [7] the test system is NCI-H295R cells. Nature of the data set: H295R steroidogenesis assay. The class given is cell-based, human. As to the method: To capture effects on steroid hormone synthesis (testosterone and androstendione), we tested all 12 pesticides in the H295R assay with the human adrenocortical carcinoma cell line NCI-H295R (American Type Culture Collection no. CRL-2,128, LGC Standards), as previously described ([Hecker et al. 2011]; [Rosenmai et al. 2013]). In brief, cells were cultured in DMEM/F-12 +glutamine medium with HEPES buffer (Invitrogen) containing 1% insulin-transferrin-sodium selenite plus Premix (VWR) and 2.5% Nu-Serum (BD Bioscience) at 37°C in a 5% CO2 atmosphere. The day before exposure, cells were seeded 300,000 per well in clear 24-well plates (VWR Corning). Cells were exposed for 48 h to control (Forskolin: 1μM , 10μM (Sigma-Aldrich); and Prochloraz: 0.3μM , 3μM (VWR-Bie and Berntsen) or test compounds. The vehicle (DMSO) concentration was kept constant in all wells (0.1%). After 48 h, the exposure culture medium was removed and stored at –80°C until the levels of 10 steroid hormones (testosterone, androstenedione, aldosterone, corticosterone, cortisol, dehydroepiandrosterone, 17α-hydroxyprogesterone , progesterone, estrone, and 17β-estradiol ) were quantified using the high-performance liquid chromatography–tandem mass spectrometry method described elsewhere ([Mortensen and Pedersen 2007]). Minor modifications were made to accommodate a smaller sample size and to include more hormones. The liquid chromatography system (Agilent 1100) was equipped with an Atlantis C18 column ( 2.1×150mm , 3μm ) (Waters Corp.) maintained at 40°C. The sample injection volume was 50μL . […] The mass spectrometer was a Quattro Ultima triple quadrupole instrument (Waters Corp.). […] Each pesticide was tested in 2-fold serial dilutions at concentrations between 0.8 and 50μM in three independent experiments, and hormone levels were normalized to the solvent controls containing 0.1% DMSO. Cell viability was evaluated by using the 3-(4,5-dimethylthiazol-2-yl)-2,5- diphenyltetrazolium bromide (MTT) assay (Sigma) as previously described ([Hecker et al. 2011]; [Rosenmai et al. 2013]). Fluorescence was measured (excitation 560 nm , emission 590 nm ) using a Wallac Victor2 1420 multilabel counter (PerkinElmer).

Take `CONC(=O)Nc1ccc(Cl)c(Cl)c1` [DPMU, 1-(3,4-Dichlorophenyl)-3-methoxyurea]: the “Urine excretion rate from kidney (L/h) KUrine” value in data set [1] (PBK model parameter) came to 0.05 L/h. In addition, the “Metabolism rate in liver, Metabolite” value in data set [1] (conversion of parent compound into active metabolite) turned out to be 0.22 L/h. The “Metabolism rate in liver, Total (L/h) KMetab” value in data set [1] (PBK model parameter) was determined as 0.02 L/h. Further, in data set [2], the “log Kow” value is recorded as 2.70. Also, in data set [3], the IC50 is 4 µM. The “Measured concentration in male fetuses” value in data set [4] (dams dosed linuron 25 mg/kg BW per day) was found to be 5.0 µM; in data set [4] (dams dosed linuron 50 mg/kg BW per day) it was 9.6 µM; in data set [4] (dams dosed linuron 75 mg/kg BW per day) it was 21.4 µM.

With `CON(C)C(=O)Nc1ccc(Cl)c(Cl)c1` [Linuron, linuron, reference compound], in data set [1] (PBK model parameter), the “Fecal excretion rate from gut (L/h) KFeces” value amounted to 0.08 L/h; the “Portal GI absorption rate into liver (L/h) KAS” value is 0.5 L/h; the “Urine excretion rate from kidney (L/h) KUrine” value is 0.05 L/h; the “Metabolism rate in liver, Total (L/h) KMetab” value was 1.0 L/h. For the same compound, the “AGDI ED10” value in data set [5] (Study 2, dose causing 10% AGDI reduction, regression) was found to be 27 mg/kg BW. Also, the AGDI mean in data set [5] (dose 25 mg/kg BW (control 1.00)) is reported as 0.91. For the same compound, the AGDI mean in data set [5] (dose 50 mg/kg BW (control 1.00)) is 0.72. The Maternal toxicity entry in data set [5] (highest dose, 75 mg/kg per day) is listed as “Maternal toxicity was observed”. Further, in data set [5] (dose 25 mg/kg BW per day), the “AGDI reduction (%)” value turned out to be 9%. Moreover, the “AGDI reduction (%)” value in data set [5] (dose 50 mg/kg BW per day) came out at 28%. The “Unbound plasma fraction (%)” value in data set [6] is on record as 10.5^g %. Further, in data set [2], the “log Kow” value is listed as 3.20. In addition, in data set [7] (H295R steroidogenesis assay), the “Effect on androgen (steroid) synthesis, in words” value is “inhibited the synthesis of androgens”. Also, the IC50 in data set [7] (Homo sapiens, NCI-H295R, 48 h, read-out: Testosterone inhibition (IC50, μM)) is 27 µM.
